According to patent US11549123B2, “Plant EPSP synthases and methods of use” (PIONEER HI-BRED INTERNATIONAL, INC., priority 2015, dated 2023):
Numbering of substitutions follows the chain as printed.

Assays:
[1] = biological target: T1, Zea mays EPSPS variant Zm-T103A (Zea mays, UniProt O24566, T102A); assay: Rapid two-rate method for (kcat/KM)*KI, Zm-T103A; format: biochemical; conditions: [E] 0.07 uM, [Gly] 1000 uM
T1 construct: native maize plus T103A; E. coli BL21(DE3), Ni-NTA purified
T1 sequence (O24566 with tags, fused parts or gaps T102A): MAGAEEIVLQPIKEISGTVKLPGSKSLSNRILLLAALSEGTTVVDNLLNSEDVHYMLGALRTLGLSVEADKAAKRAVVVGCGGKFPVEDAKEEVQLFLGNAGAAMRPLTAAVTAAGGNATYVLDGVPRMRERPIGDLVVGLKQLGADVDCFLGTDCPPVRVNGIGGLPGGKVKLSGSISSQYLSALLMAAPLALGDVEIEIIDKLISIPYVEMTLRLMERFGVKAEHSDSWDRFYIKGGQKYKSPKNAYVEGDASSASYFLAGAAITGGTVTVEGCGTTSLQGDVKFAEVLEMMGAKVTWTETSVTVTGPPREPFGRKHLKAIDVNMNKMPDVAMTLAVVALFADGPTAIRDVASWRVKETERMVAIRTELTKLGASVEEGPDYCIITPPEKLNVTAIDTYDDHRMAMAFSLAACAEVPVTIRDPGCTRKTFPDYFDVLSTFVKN
Source text: (§1) There are several practical considerations for accurately estimating (kcat/KM)*KI with the rapid method. […] 2) The inhibitor concentration must be adjusted so as to obtain a degree of inhibition that minimally amplifies the error in the term v0-vi in Equation 3. If inhibition is too little, v0-vi will be small, and the error in the multiplier vi×v0/(v0-vi) will be large. […] 3) Substrate concentration should be set at the approximate KM of the parental variant(s), subject to the sensitivity of the assay. High substrate concentration obscures sensitivity to the inhibitor and reduces stringency for capturing improvements in KM. Depending on the necessity for speed, there exists opportunity for customizing enzyme and inhibitor concentrations. […] The rapid method was repeated for those and obtained data that correlated better with data obtained by substrate saturation analysis. For screening purposes however, that correlation step is not necessary. Conditions can be set so that variants with a pre-determined minimal fitness level are accurately quantified.
(§2) In Table 15, parameters above the heavy line for the rapid method were obtained under standard conditions. For variants shown below the heavy line, the rapid analysis was repeated with enzyme or glyphosate concentrations adjusted as needed to generate sufficient signal within the limits for linear initial rates.

[2] = biological target: T2, Zea mays EPSPS variant Zm-T103I (Zea mays, UniProt O24566, T102I); assay: Rapid two-rate method for (kcat/KM)*KI, Zm-T103I; format: biochemical
T2 construct: native maize plus T103I; E. coli BL21(DE3), Ni-NTA purified
T2 sequence (O24566 with tags, fused parts or gaps T102I): T1 sequence (O24566 with tags, fused parts or gaps T102A) with A103I
Source text: as §1, §2

[3] = biological target: Zea mays EPSPS variant 241A 278G (Zea mays, UniProt O24566, K240A/T277G); assay: EPSPS reaction rate with or without 10 uM glyphosate, 241A 278G; format: biochemical; conditions: pH 7; read-out: Reaction rate with 10 μM glyph, % no glyph; note: 50 µM PEP and S3P
[4] = biological target: T3, Zea mays EPSPS variant Zm-H6 (868-H6) with A36G (H6-A36G) (Zea mays, UniProt O24566, A1R/A35G/A3W/A415G/A71Q/D401G/E301S/E390G/G101A/I207L/K83R/L97C/T278A/T360S/T440Q/V437R); assay: Rapid two-rate method for (kcat/KM)*KI, H6-A36G; format: biochemical; conditions: [E] 0.07 uM, [Gly] 1000 uM
T3 sequence (O24566 with tags, fused parts or gaps A1R/A3W/A35G/A71Q/K83R/L97C/G101A/I207L/T278A/E301S/T360S/E390G/D401G/A415G/V437R/T440Q): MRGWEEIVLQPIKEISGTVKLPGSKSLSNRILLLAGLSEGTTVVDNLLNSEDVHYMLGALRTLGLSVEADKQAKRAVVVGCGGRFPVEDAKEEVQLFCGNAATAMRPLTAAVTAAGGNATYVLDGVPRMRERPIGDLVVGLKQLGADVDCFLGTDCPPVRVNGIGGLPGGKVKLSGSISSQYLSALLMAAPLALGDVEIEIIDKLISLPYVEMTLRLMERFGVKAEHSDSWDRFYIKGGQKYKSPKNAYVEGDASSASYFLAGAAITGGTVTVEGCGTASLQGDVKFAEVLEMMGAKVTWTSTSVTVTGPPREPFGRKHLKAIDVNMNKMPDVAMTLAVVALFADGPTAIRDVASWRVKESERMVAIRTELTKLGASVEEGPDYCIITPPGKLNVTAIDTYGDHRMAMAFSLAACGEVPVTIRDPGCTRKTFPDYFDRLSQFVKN
Source text: as §1, §2

[5] = system: Arabidopsis thaliana Col-0; assay: Glyphosate spray (Touchdown) tolerance of Arabidopsis transformed with maize EPSPS constructs; format: in vivo
[6] = biological target: T3, Zea mays EPSPS variant Zm-H6 (868-H6) with A36G (H6-A36G); assay: Substrate saturation kinetic analysis with glyphosate, H6-A36G; format: biochemical

Zea mays EPSPS variant 241A 278G, sequence (O24566 entry or part of it K240A/T277G): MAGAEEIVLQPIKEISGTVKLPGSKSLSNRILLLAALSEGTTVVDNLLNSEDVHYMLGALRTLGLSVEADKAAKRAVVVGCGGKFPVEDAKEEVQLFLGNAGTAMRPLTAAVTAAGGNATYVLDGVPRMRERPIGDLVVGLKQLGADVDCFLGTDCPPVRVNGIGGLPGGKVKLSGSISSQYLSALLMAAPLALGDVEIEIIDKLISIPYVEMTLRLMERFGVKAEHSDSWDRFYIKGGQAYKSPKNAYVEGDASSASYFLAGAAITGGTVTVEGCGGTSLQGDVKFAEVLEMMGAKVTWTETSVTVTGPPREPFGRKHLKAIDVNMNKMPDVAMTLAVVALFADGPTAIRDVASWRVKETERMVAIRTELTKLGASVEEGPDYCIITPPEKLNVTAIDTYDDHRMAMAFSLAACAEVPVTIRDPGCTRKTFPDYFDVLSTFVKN

Compound: O=C(O)CNCP(=O)(O)O [glyphosate, N-phosphonomethylglycine]
- (kcat/KM)*KI [1]: 543
- (kcat/KM)*KI ([2]; rapid method repeated, [E] 0.103 uM, [Gly] 100 uM): 116
- (kcat/KM)*KI ([2]; rapid method, [E] 0.07 uM, [Gly] 1000 uM): 133
- activity at 10 µM [3]: 3.75%
- (kcat/KM)*KI [4]: 4500
- plant injury and growth inhibition compared to unsprayed controls ([5]; plants transformed with UbiQ10 promoter and H6 variant): no visible injury or growth inhibition
- growth after treatment ([5]; untransformed plants, 1.26 kg/Ha spray): did not grow at all
- plant injury ([5]; untransformed plants, 1.26 kg/Ha spray, by 10 days): chlorosis and imminent necrosis
- Ki [6]: 454 µM
- (kcat/KM)*KI ([6]; substrate saturation, H6-A36G): 3630
